# Measurements from ChEMBL document CHEMBL1125402, “Conformational effects on the activity of drugs. 13. A revision of previously proposed models for the activation of alpha- and beta-adrenergic receptors” (J Med Chem, 1992).
# What was measured:
# [1] = target: T1, Adrenergic receptor alpha-2 (Rattus norvegicus, UniProt P22086+P19328+P22909); assay: Compound was evaluated for alpha adrenergic binding affinity towards Alpha-2 adrenergic receptor of rat brain
# T1 sequence (P22086 whole entry): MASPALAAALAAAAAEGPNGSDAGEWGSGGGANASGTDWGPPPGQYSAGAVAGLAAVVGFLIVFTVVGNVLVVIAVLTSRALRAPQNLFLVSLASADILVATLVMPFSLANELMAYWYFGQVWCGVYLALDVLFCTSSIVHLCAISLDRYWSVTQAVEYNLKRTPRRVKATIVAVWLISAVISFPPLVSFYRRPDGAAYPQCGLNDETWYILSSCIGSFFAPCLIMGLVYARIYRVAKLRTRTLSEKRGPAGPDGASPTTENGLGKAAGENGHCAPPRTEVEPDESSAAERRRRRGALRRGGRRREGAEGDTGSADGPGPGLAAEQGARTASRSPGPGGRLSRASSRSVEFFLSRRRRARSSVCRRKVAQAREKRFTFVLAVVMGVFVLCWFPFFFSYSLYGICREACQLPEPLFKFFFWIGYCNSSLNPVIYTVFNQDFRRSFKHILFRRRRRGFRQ
# T1 sequence (P19328 whole entry): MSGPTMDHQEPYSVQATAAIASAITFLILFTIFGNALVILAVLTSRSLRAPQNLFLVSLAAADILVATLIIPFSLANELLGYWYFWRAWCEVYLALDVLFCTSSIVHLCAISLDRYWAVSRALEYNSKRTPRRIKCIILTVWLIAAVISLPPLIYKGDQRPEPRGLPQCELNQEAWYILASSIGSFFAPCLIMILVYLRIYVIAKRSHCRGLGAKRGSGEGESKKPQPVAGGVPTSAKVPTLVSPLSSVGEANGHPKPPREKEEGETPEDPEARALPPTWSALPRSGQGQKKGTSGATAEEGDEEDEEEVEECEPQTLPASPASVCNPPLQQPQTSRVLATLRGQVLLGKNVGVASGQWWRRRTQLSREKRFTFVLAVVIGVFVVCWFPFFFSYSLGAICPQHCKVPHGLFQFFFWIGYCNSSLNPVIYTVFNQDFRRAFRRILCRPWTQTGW
# T1 sequence (P22909 whole entry): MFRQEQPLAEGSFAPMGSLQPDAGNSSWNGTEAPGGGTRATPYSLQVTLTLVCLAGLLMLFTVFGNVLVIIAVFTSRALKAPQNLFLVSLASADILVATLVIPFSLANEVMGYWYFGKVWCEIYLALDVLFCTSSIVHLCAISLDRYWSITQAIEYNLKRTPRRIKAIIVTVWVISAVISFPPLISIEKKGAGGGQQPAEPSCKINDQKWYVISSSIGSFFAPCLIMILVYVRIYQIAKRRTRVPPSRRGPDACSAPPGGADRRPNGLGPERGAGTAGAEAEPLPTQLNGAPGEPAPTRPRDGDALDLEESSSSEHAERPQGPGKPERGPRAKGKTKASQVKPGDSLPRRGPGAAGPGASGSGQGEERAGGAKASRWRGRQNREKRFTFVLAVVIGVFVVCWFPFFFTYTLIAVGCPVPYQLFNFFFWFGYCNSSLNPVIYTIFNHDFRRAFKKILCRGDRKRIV
# [2] = target: T2, Adrenergic receptor alpha-1 (Rattus norvegicus, UniProt P15823+P23944+P43140); assay: Binding affinity towards Alpha-1 adrenergic receptor of rat brain
# T2 sequence (P15823 whole entry): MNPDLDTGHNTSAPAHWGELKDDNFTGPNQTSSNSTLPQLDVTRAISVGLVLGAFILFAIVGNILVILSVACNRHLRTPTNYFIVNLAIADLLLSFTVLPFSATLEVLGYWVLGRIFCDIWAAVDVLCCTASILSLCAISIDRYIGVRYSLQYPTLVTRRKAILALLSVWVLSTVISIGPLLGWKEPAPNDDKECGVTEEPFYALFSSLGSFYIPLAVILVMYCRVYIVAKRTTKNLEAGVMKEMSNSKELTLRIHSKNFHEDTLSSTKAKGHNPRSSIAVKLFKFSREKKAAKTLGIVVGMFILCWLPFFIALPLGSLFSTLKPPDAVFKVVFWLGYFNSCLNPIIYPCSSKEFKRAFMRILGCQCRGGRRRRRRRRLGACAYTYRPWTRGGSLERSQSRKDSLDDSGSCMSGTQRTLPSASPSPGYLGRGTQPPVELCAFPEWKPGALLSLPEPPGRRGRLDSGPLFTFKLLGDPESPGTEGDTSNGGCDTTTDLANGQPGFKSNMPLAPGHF
# T2 sequence (P23944 whole entry): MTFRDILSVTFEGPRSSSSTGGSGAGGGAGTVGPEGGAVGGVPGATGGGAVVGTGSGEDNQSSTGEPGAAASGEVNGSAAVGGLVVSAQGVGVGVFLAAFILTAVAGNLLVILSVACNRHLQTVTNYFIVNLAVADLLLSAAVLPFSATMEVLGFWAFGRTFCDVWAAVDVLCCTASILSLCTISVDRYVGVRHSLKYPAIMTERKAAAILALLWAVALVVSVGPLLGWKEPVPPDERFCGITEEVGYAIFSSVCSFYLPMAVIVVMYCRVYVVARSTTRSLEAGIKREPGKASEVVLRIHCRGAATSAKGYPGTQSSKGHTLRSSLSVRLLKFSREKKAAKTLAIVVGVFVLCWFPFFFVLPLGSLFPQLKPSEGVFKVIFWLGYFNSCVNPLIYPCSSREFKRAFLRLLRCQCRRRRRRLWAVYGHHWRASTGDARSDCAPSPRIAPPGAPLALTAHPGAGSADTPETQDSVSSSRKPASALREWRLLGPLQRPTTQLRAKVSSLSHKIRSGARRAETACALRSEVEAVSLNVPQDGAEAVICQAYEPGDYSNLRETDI
# T2 sequence (P43140 whole entry): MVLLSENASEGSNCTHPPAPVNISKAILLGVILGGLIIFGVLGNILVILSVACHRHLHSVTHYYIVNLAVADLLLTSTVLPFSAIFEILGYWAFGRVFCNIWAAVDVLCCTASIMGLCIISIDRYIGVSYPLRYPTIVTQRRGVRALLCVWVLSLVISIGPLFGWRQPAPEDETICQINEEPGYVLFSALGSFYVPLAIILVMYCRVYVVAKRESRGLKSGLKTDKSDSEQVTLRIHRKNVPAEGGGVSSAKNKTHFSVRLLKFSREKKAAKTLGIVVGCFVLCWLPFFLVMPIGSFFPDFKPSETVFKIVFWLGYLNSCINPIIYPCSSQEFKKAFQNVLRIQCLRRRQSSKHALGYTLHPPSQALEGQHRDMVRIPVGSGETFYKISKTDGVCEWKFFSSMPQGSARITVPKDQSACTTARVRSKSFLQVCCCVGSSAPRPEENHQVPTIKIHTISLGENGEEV
# [3] = target: T3, Adrenergic receptor alpha-1 (Rattus norvegicus) (UniProt P15823+P23944+P43140); assay: Intrinsic activity was expressed as the ratio between maximal response elicited by compound and that elicited by full agonist NE towards Alpha-1 adrenergic receptor of isolated rat vas deferens; ND=No data; format: functional
# [4] = target: Beta-1 adrenergic receptor (Cavia porcellus) (UniProt B0FL73)
# Description: Intrinsic activity was expressed as the ratio between maximal response elicited by compound and that elicited by full agonist ISO towards Beta-1 adrenergic receptor of isolated guinea pig atria
# [5] = target: T4, Beta-2 adrenergic receptor (Bos taurus, UniProt Q28044); assay: Compound was evaluated for beta adrenergic binding affinity towards beta-2 receptor of bovine lung
# [6] = target: T5, Adrenergic receptor alpha-2 (Homo sapiens) (UniProt P08913+P18825+P18089); details: Cavia porcellus; Ileum
# Description: Intrinsic activity was expressed as the ratio between maximal response elicited by compound and that elicited by full agonist NE towards Alpha-2 adrenergic receptor of isolated guinea pig ileum
# [7] = target: Beta-2 adrenergic receptor (Cavia porcellus) (UniProt Q8K4Z4)
# Description: Compound was evaluated for beta adrenoceptor agonistic activity towards beta 2 receptor of isolated guinea pig tracheal strip
# [8] = target: Beta-1 adrenergic receptor (Rattus norvegicus, UniProt P18090)
# Description: Compound was evaluated for beta adrenergic binding affinity towards Beta-1 adrenergic receptor of rat brain
# [9] = target: T5, Adrenergic receptor alpha-2 (Homo sapiens); assay: Compound was evaluated for alpha adrenoceptor agonistic activity towards alpha-2 adrenergic receptor of isolated guinea pig ileum; format: functional, tissue-based; details: Cavia porcellus, target entry is the homologue from another species
# [10] = target: T4, Beta-2 adrenergic receptor; assay: Compound was evaluated for beta adrenergic binding affinity towards Beta-2 adrenergic receptor of bovine lung
# [11] = target: T5, Adrenergic receptor alpha-2 (Homo sapiens); assay: Intrinsic activity was expressed as the ratio between maximal response elicited by compound and that elicited by full agonist NE towards alpha-2 adrenergic receptor of isolated guinea pig ileum; format: functional, tissue-based; details: Cavia porcellus
# [12] = target: Beta-1 adrenergic receptor (Cavia porcellus) (UniProt B0FL73); assay: Intrinsic activity was expressed as the ratio between maximal response elicited by compound and that elicited by full agonist ISO towards beta 1 receptor of isolated guinea pig atria; format: functional
# [13] = target: Beta-1 adrenergic receptor (Cavia porcellus) (UniProt B0FL73); assay: Compound was evaluated for beta adrenoceptor agonistic activity towards Beta-1 adrenergic receptor of isolated guinea pig atria; format: functional
# [14] = target: T1, Adrenergic receptor alpha-2; assay: Binding affinity towards Alpha-2 adrenergic receptor of rat brain
# [15] = target: Beta-2 adrenergic receptor (Cavia porcellus) (UniProt Q8K4Z4); assay: Compound was evaluated for beta adrenoceptor agonistic activity towards Beta-2 adrenergic receptor of isolated guinea pig tracheal strip; format: functional
# [16] = target: T3, Adrenergic receptor alpha-1 (Rattus norvegicus); assay: Intrinsic activity was expressed as the ratio between maximal response elicited by compound and that elicited by full agonist NE towards Alpha-1 adrenergic receptor of isolated rat vas deferens; format: functional, tissue-based
# [17] = target: Beta-1 adrenergic receptor (Cavia porcellus) (UniProt B0FL73); assay: Intrinsic activity was expressed as the ratio between maximal response elicited by compound and that elicited by full agonist ISO towards beta-1 receptor of isolated guinea pig atria; format: functional
# [18] = target: T3, Adrenergic receptor alpha-1 (Rattus norvegicus); assay: Compound was evaluated for alpha adrenoceptor agonistic activity towards Alpha-1 adrenergic receptor of isolated rat vas deferens; format: functional, tissue-based
# [19] = target: T2, Adrenergic receptor alpha-1; assay: Compound was evaluated for alpha adrenergic binding affinity towards alpha-1 receptor of rat brain
# [20] = target: T3, Adrenergic receptor alpha-1 (Rattus norvegicus); assay: Compound was evaluated for alpha adrenoceptor agonistic activity towards Alpha-1 adrenergic receptor of isolated rat vas deferens (exp 2); format: functional, tissue-based
# [21] = target: T3, Adrenergic receptor alpha-1 (Rattus norvegicus); assay: Compound was evaluated for alpha adrenoceptor agonistic activity towards alpha 1 receptor of isolated rat vas deferens (exp 1); format: functional, tissue-based
# Chain of Beta-1 adrenergic receptor (Cavia porcellus) (B0FL73 1-467): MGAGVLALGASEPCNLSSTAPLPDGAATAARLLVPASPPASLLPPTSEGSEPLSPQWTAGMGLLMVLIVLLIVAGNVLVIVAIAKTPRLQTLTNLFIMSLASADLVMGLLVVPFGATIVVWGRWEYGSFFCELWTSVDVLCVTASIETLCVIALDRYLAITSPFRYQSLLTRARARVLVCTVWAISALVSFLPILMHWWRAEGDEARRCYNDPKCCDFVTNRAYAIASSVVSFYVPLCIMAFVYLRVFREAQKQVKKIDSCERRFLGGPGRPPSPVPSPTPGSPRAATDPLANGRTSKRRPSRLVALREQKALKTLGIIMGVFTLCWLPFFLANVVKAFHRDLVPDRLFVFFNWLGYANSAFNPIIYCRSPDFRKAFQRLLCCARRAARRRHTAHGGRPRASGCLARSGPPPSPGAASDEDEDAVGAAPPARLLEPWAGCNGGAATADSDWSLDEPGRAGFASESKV
# T4 sequence (Q28044 whole entry): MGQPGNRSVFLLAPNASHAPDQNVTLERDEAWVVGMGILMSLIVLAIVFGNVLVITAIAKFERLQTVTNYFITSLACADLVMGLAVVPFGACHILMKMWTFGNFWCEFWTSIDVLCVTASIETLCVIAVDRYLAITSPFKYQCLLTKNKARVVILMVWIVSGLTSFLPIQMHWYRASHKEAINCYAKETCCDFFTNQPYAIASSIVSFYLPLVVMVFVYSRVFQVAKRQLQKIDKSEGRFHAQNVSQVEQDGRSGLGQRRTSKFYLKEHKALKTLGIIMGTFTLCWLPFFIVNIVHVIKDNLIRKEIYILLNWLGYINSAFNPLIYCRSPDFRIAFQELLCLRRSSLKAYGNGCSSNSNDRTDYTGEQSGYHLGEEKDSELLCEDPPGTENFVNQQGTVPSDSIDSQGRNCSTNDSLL
# Chain of Beta-1 adrenergic receptor (P18090 whole entry): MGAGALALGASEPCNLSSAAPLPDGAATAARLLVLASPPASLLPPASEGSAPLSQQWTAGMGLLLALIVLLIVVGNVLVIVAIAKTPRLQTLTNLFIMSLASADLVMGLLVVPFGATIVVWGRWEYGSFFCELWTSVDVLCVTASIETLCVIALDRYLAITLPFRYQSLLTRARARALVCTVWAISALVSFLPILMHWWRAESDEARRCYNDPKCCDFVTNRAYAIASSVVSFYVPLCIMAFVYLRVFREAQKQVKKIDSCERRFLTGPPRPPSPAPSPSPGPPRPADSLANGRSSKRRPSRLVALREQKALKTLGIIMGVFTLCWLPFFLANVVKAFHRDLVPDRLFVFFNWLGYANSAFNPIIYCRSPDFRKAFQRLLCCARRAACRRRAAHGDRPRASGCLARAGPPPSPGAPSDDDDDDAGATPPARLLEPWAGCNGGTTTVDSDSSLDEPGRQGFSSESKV
# Chain of Beta-2 adrenergic receptor (Cavia porcellus) (Q8K4Z4 whole entry, looked up): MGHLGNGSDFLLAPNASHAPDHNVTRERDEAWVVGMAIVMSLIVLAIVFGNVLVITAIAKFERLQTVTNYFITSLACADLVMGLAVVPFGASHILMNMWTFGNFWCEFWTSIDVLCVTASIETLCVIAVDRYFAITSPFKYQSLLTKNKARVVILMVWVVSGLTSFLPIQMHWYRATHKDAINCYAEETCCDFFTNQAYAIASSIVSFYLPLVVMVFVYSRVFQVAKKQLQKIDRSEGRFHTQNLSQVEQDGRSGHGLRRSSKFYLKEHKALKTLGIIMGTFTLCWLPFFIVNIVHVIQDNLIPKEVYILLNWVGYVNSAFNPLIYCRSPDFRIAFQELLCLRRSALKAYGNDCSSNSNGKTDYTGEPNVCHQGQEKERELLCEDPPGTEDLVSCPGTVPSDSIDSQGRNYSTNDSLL
SMILES,Ki [1] [µM],Ki [2] [µM],pD2 [4],Ki [5] [µM],pD2 [6],pD2 [7],Ki [8] [µM],pD2 [9],Ki [10] [µM],Intrinsic activity [11],pD2 [13],Ki [14] [µM],pD2 [15],also measured
CC(C)NC1CCc2cc(O)c(O)cc2[C@H]1O (some centres undefined),1.57,1.2,4.44,> 100,5.72,6.17,> 100,,,,,,,pD2 [3]: < 3.5
CC(C)N1CCCC(O)(c2ccc(O)c(O)c2)C1 (centres undefined),,36,,,,,60,4.57,92,0.89,3.5,4.8,4.64,Intrinsic activity [12]: 0.16
N[C@@H]1CCc2cc(O)c(O)cc2[C@H]1O,,0.3,,,,,> 100,6.63,71,1.42,4.57,0.09,5.36,Intrinsic activity [16]: 0.5; Intrinsic activity [17]: 0.81; pD2 [18]: 4.6
CC(C)NCC(O)c1ccc(O)c(O)c1 (centres undefined) [ISOPROTERENOL],21,,,,,,,,,,,,,Ki [19]: 35.5 µM
Oc1ccc(C2(O)CCCNC2)cc1O (centres undefined),0.5,15,3.81,> 100,5.56,4.44,> 100,,,,,,,Intrinsic activity [20]: 0.95; pD2 [21]: 4.76
